The structures appear in SMILES notation. Values joined by “and” are separate entries in the source; they are usually repeats but may differ in a detail not shown here. Equal values may be shown once.

The values below come from patent US20230181542A1, “METHOD AND PHARMACEUTICAL COMPOSITION FOR TREATING CHRONIC KIDNEY DISEASE” (Chengdu WenDing Technology Development Co., Ltd., priority 2020, published 2023).

The conditions of series [1]: marketed drug, known side effects; cited from earlier work.
Series [2] relates to rhesus monkeys with spontaneous chronic diabetic kidney disease. As to the kind of experiment: Renal function markers CysC, Cr-P and BUN in blood. The class given is in vivo, Macaca mulatta (Rhesus Macaque). Particulars: Valsartan group; for CysC: Mean ± SD (baseline 1.57 ± 0.10). The protocol:
The details of the dosing regime of each group are described below, wherein the route of administration was oral administration. The baseline period was 1 month, followed by continuous oral administration for 58 days. Glomerular filtration rate eGFR: creatinine (Cr-P), blood urea nitrogen (BUN), cystatin (CysC) were detected to calculate the eGFR value. Detections were performed once in the baseline period before administration, and at designated times (such as D14, D28, […], and […], etc.) after administration. In accordance with reference literature (Levey A S, Stevens L A, Schmid C H et al. A new equation to estimate glomerular filtration rate. Ann Intern Med 2009; 150:604-612), the formula for calculating eGFR was as follows: Blood sample collection method: Before the blood collection operation, an animal was fasted overnight without anesthesia. After the animals were acclimatized, the backboard was gently squeezed to restrain the animal, and blood was collected through the forearm vein. After collection, sterilized dry cotton ball was used to gently press the blood collection site to stop bleeding. [table] CysC is an endogenous marker that reflects changes in glomerular filtration rate. Cr-P has been used as the main index of renal function for more than 40 years. In this test, glomerular filtration rate eGFR is calculate by measuring CysC and Cr-P. Although BUN was first used as an evaluation index of renal function, it could not meet the requirements of endogenous GFR markers and was only used as an auxiliary index in this test.

Series [3] has the same test system. As to the kind of experiment: Proteinuria (UACR, urinary Malb and Cr-U), 4 to 6 hour urine collection. The class given is in vivo, Macaca mulatta (Rhesus Macaque). Particulars: for UACR: Valsartan group 2.67 mg/kg oral, individual animals and Mean ± SD (baseline 61 ± 33); for UACR change rate / UACR decreased by an average of (compared with the baseline) / Malb / Cr-U: Valsartan group; for UACR change rate: individual animals and Mean ± SD, negative = decrease; for Malb: individual animals and Mean ± SD (baseline 76.1 ± 114.7); for Cr-U: individual animals and Mean ± SD (baseline 90.9 ± 108.5). The protocol:
The details of the dosing regime of each group are described below, wherein the route of administration was oral administration. The baseline period was 1 month, followed by continuous oral administration for 58 days. […] Urinary albumin excretion rate (UACR): 4 h to 6 hours urine was collected and detected for urinary microalbumin (Malb) and urinary creatinine (Cr-U), followed by calculation of UACR value. Detection was performed one time before administration, and at designated times (such as once at D30 and once at […]) after administration. UACR=Malb/Cr-U. Urine sample collection method: Animals were fasted overnight before the operation of collecting urine. On the day of operation, animals were transferred to a metabolic cage, followed by collecting all urine excreted within 4 to 6 hours into a urine collection bag. Detection method: see Tables 3-2 and 3-3 Effects on urinary albumin excretion rate (UACR) are shown in FIG. 1, FIG. 2 and Table 4-1. […]

The test system is the same in series [4]. The series is described as follows: Glomerular filtration rate eGFR calculated from Cr-P and CysC. Particulars: for eGFR change value: animals with eGFR 30 to 59, DOX+PMP+MTP groups 1# and 2# combined n = 5, Valsartan n = 3, Mean ± SD; for eGFR: Valsartan group, Mean ± SD (baseline 50 ± 7). It counts as in vivo, Macaca mulatta (Rhesus Macaque). The protocol:
(§1) The details of the dosing regime of each group are described below, wherein the route of administration was oral administration. The baseline period was 1 month, followed by continuous oral administration for 58 days.
Glomerular filtration rate eGFR: creatinine (Cr-P), blood urea nitrogen (BUN), cystatin (CysC) were detected to calculate the eGFR value. Detections were performed once in the baseline period before administration, and at designated times (such as D14, D28, D45, and D58, etc.) after administration. In accordance with reference literature (Levey A S, Stevens L A, Schmid C H et al. A new equation to estimate glomerular filtration rate. Ann Intern Med 2009; 150:604-612), the formula for calculating eGFR was as follows: […]
Blood sample collection method: Before the blood collection operation, an animal was fasted overnight without anesthesia. After the animals were acclimatized, the backboard was gently squeezed to restrain the animal, and blood was collected through the forearm vein. After collection, sterilized dry cotton ball was used to gently press the blood collection site to stop bleeding.
Results of eGFR are shown in FIG. 3, Table 4-2 and Table 4-3. eGFR values of 30 to 59 ml/min/1.73m^2 were selected and included to analyze the changes of glomerular filtration rate.

For series [5] the test system is unchanged. As to the kind of experiment: Blood pressure (SBP/DBP) after anesthesia. The class given is in vivo, Macaca mulatta (Rhesus Macaque). Particulars: Valsartan group. The protocol: as §1
Blood pressure: blood pressure was detected after anesthesia, including systolic blood pressure (SBP), diastolic blood pressure (DBP), mean blood pressure (MBP) and heart rate (HR). Detection was carried out 1 time before administration and 1 time at D58 (end of administration).
Detection method: Animals were anesthetized by intramuscular injection of 15 mg/kg ketamine hydrochloride and then placed in a supine position, followed by being tied with a cuff of appropriate size according to the corresponding standard. A blood oxygen probe was clamped on a finger or toe (except the left hand) of the animal, with the red photosensitive surface on the side of the finger pad. The blood pressure of the animal was continuously detected 3 times in automatic mode with an interval of 1 minute. If the differences in the SBP, DBP and MBP of the three times were less than 15 mmHg, the measurement completed, otherwise the measurement repeated.
Detection indicators: systolic blood pressure (SBP), diastolic blood pressure (DBP), mean blood pressure (MBP) and heart rate (HR).
Instrument: GE B40i electrophysiological monitor.

In the case of `CCCN[C@H]1CCc2nc(N)sc2C1` [PMP, (S)-N6-propyl-4,5,6,7-tetrahydro-1,3-benzothiazole-2,6-diamine], the “daily dose at which the incidence of somnolence increases” value in series [1] is “above 1.5 mg”.
Regarding `CCCCC(=O)N(Cc1ccc(-c2ccccc2-c2nnn[nH]2)cc1)[C@H](C(=O)O)C(C)C` [Valsartan], the CR-P in series [2] (D 14 (baseline 1.46 ± 0.29)) amounted to 1.26 ± 0.24 mg/dL; in series [2] (D 28 (baseline 1.46 ± 0.29)) it was 1.18 ± 0.13 mg/dL; in series [2] (D 45 (baseline 1.46 ± 0.29)), 1.18 ± 0.12 mg/dL; in series [2] (D 58 (baseline 1.46 ± 0.29)), 1.10 ± 0.08 mg/dL. For the same compound, the BUN in series [2] (D 14 (baseline 41.9 ± 34.2)) turned out to be 27.1 ± 6.0 mg/dL; in series [2] (D 28 (baseline 41.9 ± 34.2)), 35.0 ± 16.6 mg/dL; in series [2] (D 45 (baseline 41.9 ± 34.2)), 37.9 ± 19.2 mg/dL; in series [2] (D 58 (baseline 41.9 ± 34.2)), 31.6 ± 11.3 mg/dL. In addition, the CysC worked out at 1.59 ± 0.10 mg/L in series [2] (D 14), 1.53 ± 0.08 mg/L in series [2] (D 28), 1.56 ± 0.09 mg/L in series [2] (D 45) and 1.48 ± 0.11 mg/L in series [2] (D 58). Besides, the UACR was 59 mg/g and 84 mg/g and 20 mg/g and 21 mg/g and 46 ± 31 mg/g in series [3] (D 30); 38 mg/g and 64 mg/g and 19 mg/g and 22 mg/g and 36 ± 20 mg/g in series [3] (D 58). Besides, the UACR change rate in series [3] (Baseline-D 30) is −27.11% and −14.25% and −33.78% and −42.53% and −29.41 ± 11.92%; in series [3] (Baseline-D 58), −52.26% and −34.73% (2×) and −41.10% and −40.71 ± 8.27%. Further, the “UACR decreased by an average of (compared with the baseline)” value in series [3] (D30) is recorded as “about 30%”; in series [3] (D58, p<0.01 vs placebo), 40.71±8.27%. Further, the Malb in series [3] (D 30) was 51.3 mg/L and 199.8 mg/L and 13.4 mg/L and 5.9 mg/L and 67.6 ± 90.3 mg/L; in series [3] (D 58), 54.9 mg/L and 206.7 mg/L and 39.9 mg/L and 6.2 mg/L and 76.9 ± 88.9 mg/L. Besides, the Cr-U in series [3] (D 30) is 87.5 mg/dL and 238.1 mg/dL and 68.3 mg/dL and 27.5 mg/dL and 105.3 ± 92.0 mg/dL; in series [3] (D 58), 143.0 mg/dL and 323.6 mg/dL and 206.3 mg/dL and 28.2 mg/dL and 175.3 ± 123.4 mg/dL. Moreover, the eGFR change value was 3 ± 2 ml/min/1.73 m^2 in series [4] (D 14 minus baseline), 6 ± 7 ml/min/1.73 m^2 in series [4] (D 28 minus baseline), 5 ± 6 ml/min/1.73 m^2 in series [4] (D 45 minus baseline) and 10±7 ml/min/1.73 m^2 in series [4] (D 58 minus baseline). Besides, the eGFR in series [4] (D 14) is given as 53 ± 7 ml/min/1.73 m^2; in series [4] (D 28) it was 56 ± 2 ml/min/1.73 m^2; in series [4] (D 45) it was 55 ± 1 ml/min/1.73 m^2; in series [4] (D 58), 60 ± 1 ml/min/1.73 m^2. The DBP in series [5] (D 58, Mean ± SD (baseline 71 ± 15)) is recorded as 63 ± 11 mmHg. In series [5] (D 58, Mean ± SD (baseline 135 ± 16)), the SBP was found to be 123 ± 12 mmHg. The “DBP decreased by an average of (compared with the baseline)” value in series [5] (D58, p<0.01 vs placebo) worked out at 8±6 mmHg. For the same compound, in series [5] (D58, p<0.05 vs placebo), the “SBP decreased by an average of (compared with the baseline)” value is listed as 13±6 mmHg. Further, in series [5] (D 58 vs baseline, Mean ± SD), the DBP change value is recorded as −8 ± 5 mmHg. For the same compound, in series [5] (D 58 vs baseline, Mean ± SD), the SBP change value is −13 ± 6 mmHg.
